How the values were obtained:
[1] = test system: bromegrass, down; assay: Test D postemergence; format: in vivo, Bromus tectorum; details: scale 0 to 100
Source text: (§1) Seeds of plant species selected from bluegrass (annual bluegrass, Poa annua), blackgrass (Alopecurus myosuroides), canarygrass (Phalaris minor), chickweed (common chickweed, Stellaria media), galium (catchweed bedstraw, Galium aparine), bromegrass, down (downy bromegrass, Bromus tectorum), Russian thistle (Salsola kali), field poppy (Papaver rhoeas), field violet (Viola arvensis), foxtail, green (green foxtail, Setaria viridis), deadnettle (henbit deadnettle, Lamium amplexicaule), ryegrass, Ital. (Italian ryegrass, Lolium multiflorum), kochia (Kochia scoparia), lambsquarters (Chenopodium album), oilseed rape (Brassica napus), pigweed (Amaranthus retroflexus), chamomile (scentless chamomile, Matricaria inodora), speedwell (bird's-eye speedwell, Veronica persica), barley, spring (spring barley, Hordeum vulgare), wheat, spring (spring wheat, Triticum aestivum), buckwheat, wild (wild buckwheat, Polygonum convolvulus), wild mustard (Sinapis arvensis), oat, wild (wild oat, Avena fatua), radish, wild (wild radish, Raphanus raphanistrum), […]), barley, winter (winter barley, Hordeum vulgare), and wheat, winter (winter wheat, Triticum aestivum) were planted into a silt loam soil and treated preemergence with test chemicals formulated in a non-phytotoxic solvent mixture which included a surfactant. At the same time, these species were planted in pots containing Sunshine Redi-Earth® planting medium comprising spaghnum peat moss, vermiculite, starter nutrients and dolomitic limestone and treated with postemergence applications of the test chemicals formulated in the same manner. Plants ranged in height from 2 to 18 cm (1- to 4-leaf stage). Treated plants and controls were maintained in a controlled growth environment for 14 to 21 d after which time all species were compared to controls and visually evaluated. […] A dash (-) response means no test result.

[2] = test system: galium; assay: Test C preemergence; format: in vivo, Galium aparine; details: for Plant response rating (scale of 0 to 100 where 0 is no effect and 100 is complete control): Galium, preemergence; for Galium plant response rating (0 to 100): Preemergence, visual rating after 13 to 15 d
Source text: (§2) Seeds of plant species selected from blackgrass (Alopecurus myosuroides), ryegrass, Italian (Italian ryegrass, Lolium multiflorum), wheat (winter wheat, Triticum aestivum), galium (catchweed bedstraw, Galium aparine), corn (Zea mays), crabgrass, large (large crabgrass, Digitaria sanguinalis), foxtail, giant, (giant foxtail, Setaria faberii), johnsongrass (Sorghum halepense), lambsquarters (Chenopodium album), morningglory (Ipomoea coccinea), nutsedge, yellow (yellow nutsedge, Cyperus esculentus), pigweed (Amaranthus retroflexus), ragweed (common ragweed, Ambrosia elatior), soybean (Glycine max), barnyardgrass (Echinochloa crus-galli), oilseed rape (Brassica napus), waterhemp (common waterhemp, Amaranthus rudis), and velvetleaf (Abutilon theophrasti) were planted into a blend of loam soil and sand and treated preemergence with test chemicals formulated in a non-phytotoxic solvent mixture which included a surfactant. At the same time, plants selected from these crop and weed species and also chickweed (common chickweed, Stellaria media), oat, wild (wild oat, Avena fatua), and kochia (Kochia scoparia), were planted in pots containing Sunshine Redi-Earth® planting medium comprising spaghnum peat moss, vermiculite, starter nutrients and dolomitic limestone and treated with postemergence applications of test chemicals formulated in the same manner. Plants ranged in height from 2 to 18 cm (1- to 4-leaf stage) for postemergence treatments. […] A dash (-) response means no test result.

[3] = test system: bluegrass; assay: Test D postemergence; format: in vivo, Poa annua; details: scale 0 to 100
Source text: as §1

[4] = test system: speedwell; assay: Test D preemergence; format: in vivo, Veronica persica; details: for Plant response rating (0 to 100), Speedwell: 16 g ai/ha, 0 is no effect, 100 is complete control; for Plant response rating: Speedwell: scale 0 to 100
Source text: as §1

[5] = test system: foxtail, giant; assay: Test C preemergence; format: in vivo, Setaria faberii; details: for Plant response rating (scale of 0 to 100 where 0 is no effect and 100 is complete control): Foxtail, Giant, preemergence; for Foxtail, Giant plant response rating (0 to 100): Preemergence, visual rating after 13 to 15 d
Source text: as §2

[6] = test system: ryegrass, Ital.; assay: Test D postemergence; format: in vivo, Lolium multiflorum; details: scale 0 to 100
Source text: as §1

[7] = test system: chamomile; assay: Test D preemergence; format: in vivo, Matricaria inodora; details: for Plant response rating (0 to 100), Chamomile: 16 g ai/ha, 0 is no effect, 100 is complete control; for Plant response rating: Chamomile: scale 0 to 100
Source text: as §1

[8] = test system: bromegrass, down; assay: Test D preemergence; format: in vivo, Bromus tectorum; details: for Plant response rating (0 to 100), Bromegrass, Down: 16 g ai/ha, 0 is no effect, 100 is complete control; for Plant response rating: Bromegrass, Down: scale 0 to 100
Source text: as §1

[9] = test system: lambsquarters; assay: Test D preemergence; format: in vivo, Chenopodium album; details: for Plant response rating (0 to 100), Lambsquarters: 16 g ai/ha, 0 is no effect, 100 is complete control; for Plant response rating: Lambsquarters: scale 0 to 100
Source text: as §1

[10] = test system: soybean; assay: Test C preemergence; format: in vivo, Glycine max; details: for Soybean plant response rating (0 to 100): Preemergence, visual rating after 13 to 15 d; for Plant response rating (scale of 0 to 100 where 0 is no effect and 100 is complete control): Soybean, preemergence, 250 g ai/ha
Source text: as §2

[11] = test system: morningglory; assay: Test C preemergence; format: in vivo, Ipomoea coccinea; details: for Plant response rating (scale of 0 to 100 where 0 is no effect and 100 is complete control): Morningglory, preemergence; for Morningglory plant response rating (0 to 100): Preemergence, visual rating after 13 to 15 d
Source text: as §2

## FC(F)(F)COc1nc(-c2ccccc2)nn1Cc1ccnc(C(F)(F)F)c1 [Compound 24]
[1]; 16 g ai/ha
  Plant response rating: Bromegrass, Down: 25
[1]; 31 g ai/ha
  Plant response rating: Bromegrass, Down: 40
[1]; 62 g ai/ha
  Plant response rating: Bromegrass, Down: 45
[1]; 125 g ai/ha
  Plant response rating: Bromegrass, Down: 50
[2]; 125 g ai/ha
  Plant response rating (scale of 0 to 100 where 0 is no effect and 100 is complete control): 50
[2]; 250 g ai/ha
  Plant response rating (scale of 0 to 100 where 0 is no effect and 100 is complete control): 90
[2]; 31 g ai/ha
  Galium plant response rating (0 to 100): 5
[2]; 62 g ai/ha
  Galium plant response rating (0 to 100): 30
[3]; 16 g ai/ha
  Plant response rating: Bluegrass: 15
[3]; 31 g ai/ha
  Plant response rating: Bluegrass: 35
[3]; 62 g ai/ha
  Plant response rating: Bluegrass: 60
[3]; 125 g ai/ha
  Plant response rating: Bluegrass: 70
[4]
  Plant response rating (0 to 100), Speedwell: 80
[4]; 62 g ai/ha
  Plant response rating: Speedwell: 100
[4]; 125 g ai/ha
  Plant response rating: Speedwell: 100
[5]; 125 g ai/ha
  Plant response rating (scale of 0 to 100 where 0 is no effect and 100 is complete control): 98
[5]; 250 g ai/ha
  Plant response rating (scale of 0 to 100 where 0 is no effect and 100 is complete control): 100
[5]; 31 g ai/ha
  Foxtail, Giant plant response rating (0 to 100): 80
[5]; 62 g ai/ha
  Foxtail, Giant plant response rating (0 to 100): 95
[6]; 16 g ai/ha
  Plant response rating: Ryegrass, Ital.: 15
[6]; 31 g ai/ha
  Plant response rating: Ryegrass, Ital.: 25
[6]; 62 g ai/ha
  Plant response rating: Ryegrass, Ital.: 30
[6]; 125 g ai/ha
  Plant response rating: Ryegrass, Ital.: 40
[7]
  Plant response rating (0 to 100), Chamomile: 0
[7]; 31 g ai/ha
  Plant response rating: Chamomile: 35
[7]; 62 g ai/ha
  Plant response rating: Chamomile: 85
[7]; 125 g ai/ha
  Plant response rating: Chamomile: 90
[8]
  Plant response rating (0 to 100), Bromegrass, Down: 25
[8]; 31 g ai/ha
  Plant response rating: Bromegrass, Down: 40
[8]; 62 g ai/ha
  Plant response rating: Bromegrass, Down: 35
[8]; 125 g ai/ha
  Plant response rating: Bromegrass, Down: 40
[9]
  Plant response rating (0 to 100), Lambsquarters: 65
[9]; 62 g ai/ha
  Plant response rating: Lambsquarters: 80
[9]; 125 g ai/ha
  Plant response rating: Lambsquarters: 85
[10]; 31 g ai/ha
  Soybean plant response rating (0 to 100): 0
[10]; 62 g ai/ha
  Soybean plant response rating (0 to 100): 5
[10]
  Plant response rating (scale of 0 to 100 where 0 is no effect and 100 is complete control): 35
[11]; 125 g ai/ha
  Plant response rating (scale of 0 to 100 where 0 is no effect and 100 is complete control): 35
[11]; 250 g ai/ha
  Plant response rating (scale of 0 to 100 where 0 is no effect and 100 is complete control): 40
[11]; 31 g ai/ha
  Morningglory plant response rating (0 to 100): 10
[11]; 62 g ai/ha
  Morningglory plant response rating (0 to 100): 30

## CCOc1nc(-c2ccccc2)nn1Cc1ccnc(C(F)(F)F)c1 [Compound 27]
[1]; 16 g ai/ha
  Plant response rating: Bromegrass, Down: 25
[1]; 31 g ai/ha
  Plant response rating: Bromegrass, Down: 30
[1]; 62 g ai/ha
  Plant response rating: Bromegrass, Down: 50
[1]; 125 g ai/ha
  Plant response rating: Bromegrass, Down: 65
[2]; 125 g ai/ha
  Plant response rating (scale of 0 to 100 where 0 is no effect and 100 is complete control): 95
[2]; 250 g ai/ha
  Plant response rating (scale of 0 to 100 where 0 is no effect and 100 is complete control): 95
[2]; 31 g ai/ha
  Galium plant response rating (0 to 100): 90
[2]; 62 g ai/ha
  Galium plant response rating (0 to 100): 95
[3]; 16 g ai/ha
  Plant response rating: Bluegrass: 35
[3]; 31 g ai/ha
  Plant response rating: Bluegrass: 60
[3]; 62 g ai/ha
  Plant response rating: Bluegrass: 65
[3]; 125 g ai/ha
  Plant response rating: Bluegrass: 70
[4]
  Plant response rating (0 to 100), Speedwell: 95
[4]; 62 g ai/ha
  Plant response rating: Speedwell: 100
[4]; 125 g ai/ha
  Plant response rating: Speedwell: 100
[5]; 125 g ai/ha
  Plant response rating (scale of 0 to 100 where 0 is no effect and 100 is complete control): 100
[5]; 250 g ai/ha
  Plant response rating (scale of 0 to 100 where 0 is no effect and 100 is complete control): 100
[5]; 31 g ai/ha
  Foxtail, Giant plant response rating (0 to 100): 100
[5]; 62 g ai/ha
  Foxtail, Giant plant response rating (0 to 100): 100
[6]; 16 g ai/ha
  Plant response rating: Ryegrass, Ital.: 15
[6]; 31 g ai/ha
  Plant response rating: Ryegrass, Ital.: 20
[6]; 62 g ai/ha
  Plant response rating: Ryegrass, Ital.: 35
[6]; 125 g ai/ha
  Plant response rating: Ryegrass, Ital.: 60
[7]
  Plant response rating (0 to 100), Chamomile: 10
[7]; 31 g ai/ha
  Plant response rating: Chamomile: 90
[7]; 62 g ai/ha
  Plant response rating: Chamomile: 100
[7]; 125 g ai/ha
  Plant response rating: Chamomile: 100
[8]
  Plant response rating (0 to 100), Bromegrass, Down: 0
[8]; 31 g ai/ha
  Plant response rating: Bromegrass, Down: 20
[8]; 62 g ai/ha
  Plant response rating: Bromegrass, Down: 65
[8]; 125 g ai/ha
  Plant response rating: Bromegrass, Down: 70
[9]
  Plant response rating (0 to 100), Lambsquarters: 85
[9]; 62 g ai/ha
  Plant response rating: Lambsquarters: 95
[9]; 125 g ai/ha
  Plant response rating: Lambsquarters: 95
[10]; 31 g ai/ha
  Soybean plant response rating (0 to 100): 35
[10]; 62 g ai/ha
  Soybean plant response rating (0 to 100): 40
[10]
  Plant response rating (scale of 0 to 100 where 0 is no effect and 100 is complete control): 75
[11]; 125 g ai/ha
  Plant response rating (scale of 0 to 100 where 0 is no effect and 100 is complete control): 100
[11]; 250 g ai/ha
  Plant response rating (scale of 0 to 100 where 0 is no effect and 100 is complete control): 95
[11]; 31 g ai/ha
  Morningglory plant response rating (0 to 100): 20
[11]; 62 g ai/ha
  Morningglory plant response rating (0 to 100): 80

## COc1nc(-c2ccc(Cl)cc2)nn1Cc1ccnc(C(F)(F)F)c1 [Compound 28]
[1]; 16 g ai/ha
  Plant response rating: Bromegrass, Down: 20
[1]; 31 g ai/ha
  Plant response rating: Bromegrass, Down: 20
[1]; 62 g ai/ha
  Plant response rating: Bromegrass, Down: 25
[1]; 125 g ai/ha
  Plant response rating: Bromegrass, Down: 35
[3]; 16 g ai/ha
  Plant response rating: Bluegrass: 20
[3]; 31 g ai/ha
  Plant response rating: Bluegrass: 20
[3]; 62 g ai/ha
  Plant response rating: Bluegrass: 45
[3]; 125 g ai/ha
  Plant response rating: Bluegrass: 40
[4]
  Plant response rating (0 to 100), Speedwell: 75
[4]; 62 g ai/ha
  Plant response rating: Speedwell: 100
[4]; 125 g ai/ha
  Plant response rating: Speedwell: 100
[6]; 16 g ai/ha
  Plant response rating: Ryegrass, Ital.: 20
[6]; 31 g ai/ha
  Plant response rating: Ryegrass, Ital.: 20
[6]; 62 g ai/ha
  Plant response rating: Ryegrass, Ital.: 30
[6]; 125 g ai/ha
  Plant response rating: Ryegrass, Ital.: 45
[7]
  Plant response rating (0 to 100), Chamomile: 0
[7]; 31 g ai/ha
  Plant response rating: Chamomile: 20
[7]; 62 g ai/ha
  Plant response rating: Chamomile: 75
[7]; 125 g ai/ha
  Plant response rating: Chamomile: 95
[8]
  Plant response rating (0 to 100), Bromegrass, Down: 35
[8]; 31 g ai/ha
  Plant response rating: Bromegrass, Down: 40
[8]; 62 g ai/ha
  Plant response rating: Bromegrass, Down: 45
[8]; 125 g ai/ha
  Plant response rating: Bromegrass, Down: 45
[9]
  Plant response rating (0 to 100), Lambsquarters: 75
[9]; 62 g ai/ha
  Plant response rating: Lambsquarters: 85
[9]; 125 g ai/ha
  Plant response rating: Lambsquarters: 95

Reference: patent publication US10681909B2, “Herbicidal triazoles” (FMC Corporation, priority 2014, dated 2020)
